Results reported in ChEMBL document CHEMBL1201862, “PubChem BioAssay data set” (2004).
The source made the active and inactive calls.

Tests used:
[1] = target: T1, Methionyl-tRNA synthetase, putative (Trypanosoma brucei brucei, UniProt Q38C91); assay type: functional, Trypanosoma brucei brucei strain 927/4 GUTat10.1
T1 sequence (Q38C91 whole entry): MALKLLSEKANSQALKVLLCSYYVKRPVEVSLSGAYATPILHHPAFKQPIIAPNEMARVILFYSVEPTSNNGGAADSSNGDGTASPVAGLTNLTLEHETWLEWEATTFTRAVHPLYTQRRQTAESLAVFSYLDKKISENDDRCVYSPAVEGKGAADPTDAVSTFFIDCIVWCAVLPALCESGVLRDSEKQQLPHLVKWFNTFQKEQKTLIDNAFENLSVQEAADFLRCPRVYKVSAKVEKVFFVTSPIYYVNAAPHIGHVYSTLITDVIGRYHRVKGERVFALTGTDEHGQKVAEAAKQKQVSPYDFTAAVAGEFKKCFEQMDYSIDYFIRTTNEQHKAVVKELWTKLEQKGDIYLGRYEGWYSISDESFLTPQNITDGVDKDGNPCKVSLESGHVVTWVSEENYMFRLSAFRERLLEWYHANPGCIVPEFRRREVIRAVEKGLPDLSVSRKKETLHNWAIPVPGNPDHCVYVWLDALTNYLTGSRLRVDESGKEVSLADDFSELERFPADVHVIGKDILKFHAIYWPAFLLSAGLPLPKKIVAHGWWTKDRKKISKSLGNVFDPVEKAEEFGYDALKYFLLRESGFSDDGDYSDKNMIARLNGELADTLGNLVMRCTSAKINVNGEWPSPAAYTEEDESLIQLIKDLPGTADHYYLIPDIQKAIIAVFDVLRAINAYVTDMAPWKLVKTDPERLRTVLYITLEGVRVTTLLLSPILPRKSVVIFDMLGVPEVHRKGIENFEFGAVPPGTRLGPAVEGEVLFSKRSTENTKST

[2] = Counterscreen for inhibitors of Trypanosoma brucei methionyl tRNA synthetase (MetRS): Luminescence-based cell-based high throughput dose response assay to identify compounds that are cytotoxic to Jurkat human T lymphocyte cells.; assay type: functional
[3] = target: T1, Methionyl-tRNA synthetase, putative; assay type: functional, Trypanosoma brucei brucei strain 927/4 GUTat10.1; remark: listed apart in the source
[4] = Luminescence Cell-Based Dose Confirmation HTS to Identify Activators of 5'UTR Stem-Loop Driven Alpha-Synuclein mRNA Translation in H4 Neuroglioblastoma Cells. [Related pubchem assays: 1829 (Project Summary), 1814 (Primary HTS)]; assay type: functional
[5] = Luminescence Cell-Based Dose Response HTS to Identify Activators of Luciferase Translation or Activity in H4 […] Cells. [Related pubchem assays: 1829 (Project Summary), 1814 (Primary HTS)]; assay type: functional
[6] = system: H4; assay: Luminescence Cell-Based Dose Response HTS to Identify Activators of 5'UTR Stem-Loop Driven Prion Protein mRNA Translation in H4 Neuroglioblastoma Cells. [Related pubchem assays: 1829 (Project Summary), 1814 (Primary HTS)]; assay type: functional; conditions: Homo sapiens
[7] = Luminescence Cell-Based Dose Retest to Confirm Inhibitors of Cancer Stem Cells. [Related pubchem assays (depositor defined):AID2717, AID2721]; assay type: functional; conditions: Homo sapiens
[8] = system: Vero; assay: cells; assay type: functional; conditions: Chlorocebus sabaeus
[9] = off-target signal loss in HeLa-CEM21 co-culture – HeLa F-luc CTL cells, cherry-picked, counter-screen for HIV-1 Env fusion inhibitor project, dose response (AID 652040); assay type: functional, cell-based;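 further: potency for signal decrease marking cytotoxic or nonspecific inhibition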
[10] = HIV-1 AD8 envelope cell-cell fusion blockers – cherry-pick, dose response (AID 652062); assay type: functional, cell-based;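 further: luciferase signal from cell-cell fusion driven by HIV-1 clade B AD8 Env; potency is for inhibitors of fusion seen as a drop in luminescence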
[11] = blockers of HIV-1 envelope-mediated cell-cell fusion – cherry-pick, dose response (AID 652057); assay type: functional, cell-based
[12] = blockers of HIV-1 ZM109 envelope-driven cell-cell fusion – HeLa effector, CEM target cells, luciferase, cherry-pick, dose response (AID 652058); assay type: functional, cell-based;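 further: luciferase signal from HIV-1 Env mediated cell-cell fusion of effector and target cells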
[13] = target: Prothrombin (Homo sapiens, UniProt P00734); assay: Thrombin 1536 HTS Dose Response Confirmation. [Related pubchem assays: 1046 (Thrombin 1536 HTS; hits were confirmed in this assay)]; assay type: functional
[14] = cells; assay type: functional, cell-based
[15] = cells; assay type: functional, cell-based; remark: listed apart in the source
[16] = target: T2, DNA repair protein RAD52 homolog (Homo sapiens, UniProt P43351); assay type: functional, biochemical
T2 sequence (P43351 whole entry): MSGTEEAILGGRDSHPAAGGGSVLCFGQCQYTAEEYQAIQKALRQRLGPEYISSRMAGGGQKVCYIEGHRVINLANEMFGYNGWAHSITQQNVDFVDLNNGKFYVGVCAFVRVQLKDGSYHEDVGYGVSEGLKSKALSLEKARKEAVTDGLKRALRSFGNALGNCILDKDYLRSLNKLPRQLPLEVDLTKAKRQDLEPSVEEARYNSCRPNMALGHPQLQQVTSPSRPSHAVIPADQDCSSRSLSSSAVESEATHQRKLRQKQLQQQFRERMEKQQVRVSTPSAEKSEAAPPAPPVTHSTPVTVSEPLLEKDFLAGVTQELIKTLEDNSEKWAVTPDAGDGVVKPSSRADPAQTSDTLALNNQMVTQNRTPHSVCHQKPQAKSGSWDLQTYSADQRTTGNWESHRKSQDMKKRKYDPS

[17] = A549 cell cytotoxicity, dose response, cytotoxicity control, plate reader, cherry-pick, antagonist series (AID 743412); assay type: functional, cell-based
[18] = toxicity toward HepG2 liver cells – cell-based, plate reader, cherry-pick, antagonist series, cytotoxicity control, dose response (AID 743416); assay type: functional
[19] = viability loss in HEK293 cells – cell-based, plate reader, cherry-picked samples, cytotoxicity control, dose response (AID 743446); assay type: functional
[20] = viability of PTEN-deleted HCT116 cells – cell-based, HCT116 PTEN knockout, dose response (AID 1047); assay type: functional;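 further: HCT116 colon tumor cells with PTEN knocked out; cells exposed to compound for 60 hours before readout; potency for loss of cell viability measured by luminescence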
[21] = viability of HCT116 lacking mutant beta-catenin – cell-based, human colon tumor, dose response (AID 1045); assay type: functional;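 further: HCT116 colon tumor cells with beta catenin knocked out; cells exposed to compound for 60 hours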
[22] = system: Streptococcus sp. 'group A'; assay: Streptococcus pyogenes SK(-)GAS viability under kanamycin – luminescence, BacTiterGlo, confirmation, counter-screen for streptokinase expression inhibitor project, dose response (AID 1900); assay type: functional, organism-based
[23] = Trypanosoma cruzi growth suppression in host cells – NIH3T3 host cells, beta-gal luminescence, confirmation (AID 2044); assay type: functional, cell-based;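 further: intracellular parasites grown in NIH/3T3 mouse fibroblasts as host cells; luminescent beta-galactosidase reporter signal from transgenic T. cruzi replicating inside host cells; inhibitors lower the luminescence signal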
[24] = NIH3T3 cell viability loss – ATP luminescence, mouse fibroblasts, counter-screen, dose response (AID 2010); assay type: functional, cell-based;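 further: cells exposed to compound for about 90 hours before reading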
[25] = system: Streptococcus; assay: GAS UMAA2166 growth inhibition – luminescence, BacTiterGlo, counter-screen for streptokinase expression inhibitor project, dose response (AID 1915); assay type: functional, organism-based;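 further: potency for reduction of bacterial viability or growth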
[26] = target: Large T antigen (Simian virus 40, UniProt P03070); assay type: functional, Betapolyomavirus macacae;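 further: Confirmatory-stage PubChem screen for compounds that inhibit SV40 T antigen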
[27] = target: FAD-linked sulfhydryl oxidase ALR (Homo sapiens, UniProt P55789); assay: ALR-catalysed DTT oxidation blockers – biochemical, H2O2 detection, luminescence, cherry-pick, dose response (AID 493248)
Chain of FAD-linked sulfhydryl oxidase ALR (P55789 whole entry): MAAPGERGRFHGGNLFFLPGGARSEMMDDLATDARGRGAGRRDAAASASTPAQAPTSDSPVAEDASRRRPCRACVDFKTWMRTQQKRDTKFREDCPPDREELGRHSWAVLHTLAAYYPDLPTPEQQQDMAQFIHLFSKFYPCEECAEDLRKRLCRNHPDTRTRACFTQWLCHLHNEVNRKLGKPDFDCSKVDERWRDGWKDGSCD

Chain of Large T antigen (P03070 whole entry): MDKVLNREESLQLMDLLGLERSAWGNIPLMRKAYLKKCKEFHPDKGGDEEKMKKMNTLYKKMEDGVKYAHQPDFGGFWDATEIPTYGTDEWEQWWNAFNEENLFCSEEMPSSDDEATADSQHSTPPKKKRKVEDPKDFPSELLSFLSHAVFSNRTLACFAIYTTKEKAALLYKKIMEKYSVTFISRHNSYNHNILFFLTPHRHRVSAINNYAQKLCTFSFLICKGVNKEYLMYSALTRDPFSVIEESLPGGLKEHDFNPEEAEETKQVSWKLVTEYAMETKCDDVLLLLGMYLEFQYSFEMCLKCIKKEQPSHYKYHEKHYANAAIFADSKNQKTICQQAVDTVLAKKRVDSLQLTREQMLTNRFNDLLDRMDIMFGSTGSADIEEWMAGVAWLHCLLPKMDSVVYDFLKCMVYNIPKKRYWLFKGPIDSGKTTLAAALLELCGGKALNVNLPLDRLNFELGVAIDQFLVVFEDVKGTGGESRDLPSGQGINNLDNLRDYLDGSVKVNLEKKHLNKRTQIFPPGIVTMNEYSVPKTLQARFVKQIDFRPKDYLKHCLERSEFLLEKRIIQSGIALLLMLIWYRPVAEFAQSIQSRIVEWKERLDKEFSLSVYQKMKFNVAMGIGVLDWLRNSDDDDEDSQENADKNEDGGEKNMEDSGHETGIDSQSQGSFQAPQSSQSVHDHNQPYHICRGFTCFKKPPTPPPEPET

CC(C)(C)[C@H]1C=C(C(=O)NCc2nc3ccccc3[nH]2)O[C@@H](OCCCCO)C1
IC50 [1]: 6.66 µM (active) | IC50 [2]: 83.3 µM (inactive) | IC50 [3]: 2.63 µM (active)

Sc1nnc(COc2ccccc2)n1/N=C/C(Cl)=C/c1ccccc1
EC50 [4]: 6.85 µM (active) | EC50 [5]: 12.6 µM (active) | EC50 [6]: > 120 µM (not active) | AC50 [7]: 2.32 µM (active) | CC50 [8]: > 25 µM (active)

O=C(Nc1ccc(CN2CCS(=O)(=O)CC2)cc1)c1ccc(C(F)(F)F)cc1
AC50 [9]: > 70 µM (inactive) | AC50 [10]: 3.22 µM (active)

CC(C)N(Cc1nc(-c2ccccc2)no1)C(=O)CN(C)S(=O)(=O)c1ccc(Br)cc1
AC50 [11]: 49.9 µM (active) | AC50 [9]: 60.4 µM (active) | AC50 [10]: 20.1 µM (active)

Cc1ccc(CNC(=O)CSc2n[nH]c3c4cc(F)ccc4nc-3n2)cc1
IC50 [1]: 119 µM (inactive) | IC50 [2]: 83.3 µM (inactive) | IC50 [3]: 0.785 µM (active)

C[C@H](CO)N1C[C@H](C)[C@H](CN(C)S(=O)(=O)c2ccccc2F)Oc2ncc(/C=C/c3ccccc3)cc2C1=O
AC50 [11]: 3.51 µM (active) | AC50 [12]: 10.2 µM (active) | AC50 [10]: 10.1 µM (active)

COc1ccc(C2C=C(c3ccc(Br)cc3)Nc3nc(N4C(=O)CCC4=O)nn32)cc1 (stereo not given)
IC50 [13]: > 50 µM (not active)

CC(Cc1ccccc1)NC(=O)/C=C/C(=O)O (stereo not given)
IC50 [14]: > 29.9 µM (inactive) | EC50 [15]: > 29.9 µM (inactive)

NCc1cc2c3c(c1)CCCN3CCC2
AC50 [16]: 1.92 µM (active)

O=C(CNC(=O)c1ccccc1F)OCC(=O)c1c[nH]c2ccccc12
IC50 [14]: > 29.9 µM (inactive) | EC50 [15]: > 29.9 µM (inactive)

COc1ccccc1N1CCN(C(=O)c2sc3nc(-c4ccc(F)cc4)cn3c2C)CC1
AC50 [17]: > 52 µM (inactive) | AC50 [18]: 43.3 µM (active) | AC50 [19]: 37.1 µM (active)

OC(c1cc(F)cc(Cl)c1)c1nc(-c2ccc(Cl)cc2)c[nH]1 (stereo not given)
IC50 [1]: 15 µM (inactive) | IC50 [2]: 56.3 µM (inactive) | IC50 [3]: 6.73 µM (active)

CC(C)CC#Cc1ccc2c(c1)O[C@@H](CN(C)S(=O)(=O)c1cccc(F)c1)[C@@H](C)CN([C@@H](C)CO)S2(=O)=O
AC50 [11]: 7.21 µM (active) | AC50 [12]: 8.81 µM (active) | AC50 [10]: 11.6 µM (active)

COc1cccc(S(=O)(=O)N(C)C[C@@H]2Oc3cc(C#CCC(C)C)ccc3S(=O)(=O)N([C@@H](C)CO)C[C@@H]2C)c1
AC50 [11]: 20 µM (active) | AC50 [12]: 46.1 µM (active) | AC50 [10]: 25.7 µM (active)

C#CCSc1nncn1C(=O)/C=C/c1ccccc1
IC50 [13]: 0.294 µM (active)

CCN(CC)CCCNC(=O)c1csc(Nc2cccc3ccccc23)n1
AC50 [16]: 21.9 µM (active)

Cc1cc(C(=O)COc2cccc(-n3cnnn3)c2)c(C)n1-c1ccccc1
EC50 [20]: 48.3 µM (active) | EC50 [21]: 77.4 µM (active)

COc1ccccc1NC(=O)N1CCCC1C(=O)NC1CCCCC1 (stereo not given)
IC50 [13]: > 50 µM (not active)

COc1ccccc1/C=C/c1ccc2cccc(O)c2n1
EC50 [22]: 1.52 µM (active) | EC50 [23]: 2.74 µM (active) | EC50 [24]: > 60 µM (not active) | EC50 [25]: 6 µM (active) | CC50 [8]: > 25 µM (active)

N=C(N)N/N=C/c1ccc(OCc2ccccc2Cl)cc1
EC50 [23]: 0.539 µM (active) | EC50 [20]: 4.14 µM (active) | EC50 [24]: > 60 µM (not active) | EC50 [21]: 4.04 µM (active) | AC50 [16]: 16.6 µM (active)

Cc1cc2nc(-c3ccc(SCC(=O)Nc4nccs4)nc3)[nH]c2cc1C
EC50 [20]: 19.6 µM (active) | EC50 [21]: 33.3 µM (active)

Cc1ccccc1CCN(C(=O)c1csnn1)C(C(=O)NC1CCCC1)c1ccncc1 (stereo not given)
AC50 [11]: 0.548 µM (active) | AC50 [12]: 0.742 µM (active) | AC50 [9]: 1.13 µM (active) | AC50 [10]: < 0.26 µM (active)

CCN1C(=O)C(CC(=O)Nc2ccc(OC)cc2)N(CCc2ccc(F)cc2)C1=S (stereo not given)
IC50 [1]: 11.4 µM (inactive) | IC50 [2]: 61.1 µM (inactive) | IC50 [3]: 6.2 µM (active)

CC1CCN(S(=O)(=O)c2cc(C(=O)N3CCN(c4ccccc4)CC3)ccc2Br)CC1
AC50 [11]: 40.3 µM (active) | AC50 [12]: 3.22 µM (active) | AC50 [10]: 4.92 µM (active)

O=C(CNC(=O)OCc1ccccc1)Nc1ccc(Br)cc1C(=O)c1ccccc1Cl
EC50 [20]: 44.5 µM (active) | EC50 [21]: 45.4 µM (active)

Cc1cc(C(=O)CSc2nnnn2C)c(C)n1-c1cccc(F)c1
IC50 [13]: > 50 µM (not active)

COc1ccc(C)cc1N1C(=O)C(c2ccccc2)C(c2nc3ccccc3s2)=C1N (stereo not given)
EC50 [20]: 3.06 µM (active) | EC50 [21]: 2.48 µM (active) | AC50 [7]: 4.88 µM (active) | CC50 [8]: 6.15 µM (active)

O=C(Nc1ccc(O)cc1)c1ccc(NC(=O)C2CCCO2)cc1 (stereo not given)
IC50 [26]: 11.1 µM (active)

CSCc1nc2scc(-c3ccccc3)c2c(=O)[nH]1
IC50 [13]: > 50 µM (not active)

NC(=O)Nc1ccc(Nc2ccccc2)cc1
IC50 [26]: 7.83 µM (active) | AC50 [27]: 0.916 µM (active)
